Where two headings read alike, the source gives them in different places.
System: HCV replicon cells
Assay: Cell-based HCV replicon assay (replicon RNA level by real time PCR, Taqman)
Conditions: Hepatitis C virus, 72 h, HCV replicon cells, read-out: EC90 (μM) range
Description: Assays Cell-Based HCV Replicon Assay
To measure cell-based anti-HCV activity of the compounds of the present invention, replicon cells were seeded at 5000 cells/well in 96-well collagen I-coated Nunc plates in the presence of the compound of the invention. Various concentrations of a compound of the invention, typically in 10 serial 2-fold dilutions, were added to the assay mixture, the starting concentration of the compound ranging from 25 μM to 1 μM. The final concentration of DMSO was 0.5%, fetal bovine serum was 10%, in the assay media. Cells were harvested on day 3 by the addition of 1× cell lysis buffer (Ambion cat #8721). The replicon RNA level was measured using real time PCR (Taqman assay). The amplicon was located in 5B. The PCR primers were: 5B.2F, ATGGACAGGCGCCCTGA (SEQ. ID NO. 1); 5B.2R, […] (SEQ. ID NO. 2); the probe sequence was FAM-labeled CACGCCATGCGCTGCGG (SEQ. ID NO. 3). GAPDH RNA was used as endogenous control and was amplified in the same reaction as NS5B (multiplex PCR) using primers and VIC-labeled probe recommended by the manufacturer (PE Applied Biosystem). The real-time RT-PCR reactions were run on ABI PRISM 7900HT Sequence Detection System using the following program: 48′C for 30 min, 95° C. for 10 min, 40 cycles of 95° C. for 15 sec, 60° C. for 1 min. The ΔCT values (CT5B-CTGAPDH) were plotted against the concentration of test compound and fitted to the sigmoid dose-response model using GraphPad PRISM software. EC50 was defined as the concentration of inhibitor necessary to achieve ΔCT=1 over the projected baseline; EC90 the concentration necessary to achieve ΔCT=3.2 over the baseline. Alternatively, to quantitate the absolute amount of replicon RNA, a standard curve was established by including serially diluted T7 transcripts of replicon RNA in the Taqman assay. All Taqman reagents were from PE Applied Biosystems. Such an assay procedure was described in detail in e.g. Malcolm et al., Antimicrobial Agents and Chemotherapy 50: 1013-1020 (2006).
HCV Replicon assay data for compounds of the invention that were tested was obtained using the above method. Calculated EC90 values are reported for each compound in Table I as a falling within the following ranges: […]

[1] = replicon RNA level by real time PCR (Taqman), harvested on day 3, calculated EC90 reported as range class
[2] = harvested on day 3, replicon RNA by real time PCR, calculated EC90 reported as range class
[3] = replicon RNA level by real time PCR, harvested day 3
[4] = harvested day 3, replicon RNA by real time PCR, given as number
[5] = harvested day 3, replicon RNA by real time PCR, reported as range class

Cc1ccc([C@@H](C)Nc2nc(C)c(-c3ccc4ccccc4n3)c(N[C@@H]3C[C@H](CO)[C@@H](O)[C@H]3O)n2)cc1 [Example 1323]
EC90 [1]: > 5 µM

Cc1nc(NCC2CC2)nc(N[C@@H]2C[C@H](CO)[C@@H](O)[C@H]2O)c1-c1cc2cc(C(F)(F)F)ncc2o1 [Example 143]
EC90 [2]: 0.5 to 5 µM

COc1cc2cc(-c3c(C)nc(NCC4CC4)nc3N[C@@H]3C[C@H](CO)[C@@H](O)[C@H]3O)oc2c(OC)n1 [Example 1127]
EC90 [1]: < 0.5 µM

CCc1nccc2sc(-c3c(C)nc(NCC(F)(F)F)nc3N[C@@H]3C[C@H](CO)[C@@H](O)[C@H]3O)nc12 [Example 1340]
EC90 [3]: < 0.5 µM

CO[C@@H]1[C@H](O)[C@@H](CO)C[C@H]1Nc1nc(NCC(F)(F)F)nc(C)c1-c1nc2ccccc2s1 [Example 1341]
EC90 [3]: < 0.5 µM

CCCOc1cc2cc(-c3c(C)nc(NCC(F)(F)F)nc3N[C@@H]3C[C@H](CO)[C@@H](O)[C@H]3O)oc2c(C)n1 [Example 34]
EC90 [4]: 0.1 µM

COc1ccc(CNc2nc(C)c(-c3nc4ccccc4s3)c(N[C@@H]3C[C@H](CO)[C@@H](O)[C@H]3O)n2)cc1OC [Example 709]
EC90 [2]: < 0.5 µM

Cc1nc(NCCNC(=O)OCc2ccccc2)nc(N[C@@H]2C[C@H](CO)[C@H]3OC(C)(C)O[C@H]32)c1-c1nc2ccccc2s1 [Example 253]
EC90 [2]: 0.5 to 5 µM

Cc1cc2cc(-c3c(C)nc(NCC(F)(F)F)nc3N[C@@H]3C[C@H](CO)[C@@H](O)[C@H]3O)oc2c(OC(C)C)n1 [Example 1247]
EC90 [1]: < 0.5 µM

Cc1ccc2nc(-c3c(C)nc(NCC(F)(F)F)nc3N[C@@H]3C[C@H](CO)[C@@H](O)[C@H]3O)sc2c1 [Example 1063]
EC90 [1]: 0.5 to 5 µM

Cc1nc(NCc2cc3cn[nH]c3cc2F)nc(N[C@@H]2C[C@H](CO)[C@@H](O)[C@H]2O)c1-c1nc2cnccc2s1 [Example 1911]
EC90 [3]: < 0.5 µM

CCOc1nccc2sc(-c3c(C)nc(N[C@H](C)c4ccc(C)cc4)nc3N[C@@H]3C[C@H](CO)[C@@H](O)[C@H]3O)nc12 [Example 1343]
EC90 [3]: < 0.5 µM

Cc1nc(NCC(F)(F)F)nc(NC2CCN(C(=O)OC(C)(C)C)C2)c1-c1nc2ccccc2s1 (centres unmarked) [Example 1515]
EC90 [3]: 0.5 to 5 µM

Cc1nc(NCC(F)(F)F)nc(N[C@@H]2CC[C@@H](O)[C@@]2(C)O)c1-c1nc2cnccc2s1 [Example 1809]
EC90 [3]: 0.5 to 5 µM

CCOCCNc1nc(C)c(-c2cc3cc(C(F)(F)F)ncc3o2)c(N[C@@H]2C[C@H](CO)[C@@H](O)[C@H]2O)n1 [Example 138]
EC90 [2]: < 0.5 µM

CNc1nc(Cl)c(-c2cc3cc(OC)nc(C)c3o2)c(N[C@@H]2C[C@H](CO)[C@@H](O)[C@H]2O)n1 [Example 15]
EC90 [5]: < 0.5 µM

Cc1nc(N[C@H](C)C(C)(C)C)nc(N[C@@H]2C[C@H](CO)[C@@H](O)[C@H]2O)c1-c1nc2cnccc2s1 [Example 1308]
EC90 [1]: 0.5 to 5 µM

OC[C@H]1C[C@@H](Nc2nc(NCC3CCOCC3)nc(Cl)c2-c2nc3ccccc3s2)[C@H](O)[C@@H]1O [Example 447]
EC90 [2]: < 0.5 µM

Cc1nc(NCC(F)(F)F)nc(NC2CCN(C(=O)OC(C)(C)C)CC2)c1-c1nc2ccccc2s1 [Example 1514]
EC90 [3]: > 5 µM

Cc1nc(NCCC(=O)O)nc(N[C@@H]2C[C@H](CO)[C@@H](O)[C@H]2O)c1-c1nc2ccccc2s1 [Example 1012]
EC90 [1]: > 5 µM

COCc1cc2cc(-c3c(C)nc(NCc4nccs4)nc3N[C@@H]3C[C@H](CO)[C@H]4OC(C)(C)O[C@H]43)oc2cn1 [Example 339]
EC90 [2]: < 0.5 µM

Cc1nc(NCC(F)(F)F)nc(N[C@@H]2C[C@H](CO)[C@@H](O)[C@H]2O)c1-c1cc2cc(OCC(C)C)nc(C)c2o1 [Example 1055]
EC90 [1]: 0.5 to 5 µM

COc1ccc([C@H](Nc2nc(C)c(-c3nc4c(C)nccc4s3)c(N[C@@H]3C[C@H](CO)[C@@H](O)[C@H]3O)n2)C(F)(F)F)cc1 [Example 1540]
EC90 [3]: < 0.5 µM

Cc1nc(NCC(F)(F)F)nc(N[C@@H]2C[C@H](CO)[C@@H](O)[C@H]2O)c1-c1nc2cc(N(C)C)ccc2s1 [Example 247]
EC90 [2]: < 0.5 µM

CCc1cc2cc(-c3c(C)nc(NCc4cc(OC)cc(OC)c4)nc3N[C@@H]3C[C@H](CO)[C@H]4OC(C)(C)O[C@H]43)oc2cn1 [Example 345]
EC90 [2]: < 0.5 µM

Cc1nc(N[C@@H]2CCc3ccccc32)nc(N[C@@H]2C[C@H](CO)[C@@H](O)[C@H]2O)c1-c1nc2cnccc2s1 [Example 1312]
EC90 [1]: 0.5 to 5 µM

Cc1nc(NCC(F)(F)F)nc(N[C@@H]2C[C@H](CNS(=O)(=O)CC(F)(F)F)[C@@H](O)[C@H]2O)c1-c1nc2ccccc2s1 [Example 1520]
EC90 [3]: 0.5 to 5 µM

CCC(O)[C@H]1C[C@@H](Nc2nc(NCC(F)(F)F)nc(C)c2-c2nc3ccccc3s2)[C@H](O)[C@@H]1O (some centres unmarked) [Example 1637]
EC90 [3]: 0.5 to 5 µM

Cc1nc(N(C)Cc2ccccc2)nc(N[C@@H]2C[C@H](CO)[C@@H](O)[C@H]2O)c1-c1nc2cnccc2s1 [Example 1313]
EC90 [1]: 0.5 to 5 µM

CCS(=O)(=O)NC[C@H]1C[C@@H](Nc2nc(NCC(F)(F)F)nc(C)c2-c2nc3ccccc3s2)[C@H](O)[C@@H]1O [Example 1521]
EC90 [3]: 0.5 to 5 µM

CCOCCNc1nc(C)c(-c2ccc3ccccc3n2)c(N[C@@H]2C[C@H](CO)[C@@H](O)[C@H]2O)n1 [Example 1324]
EC90 [1]: > 5 µM

CCOCCNc1nc(C)c(-c2nc(C)c(C)s2)c(N[C@@H]2C[C@H](CO)[C@@H](O)[C@H]2O)n1 [Example 137]
EC90 [2]: 0.5 to 5 µM

CCOc1cc2cc(-c3c(C)nc(N[C@H](C)c4ccc(C)cc4)nc3N[C@@H]3C[C@H](CO)[C@@H](O)[C@H]3O)oc2c(C)n1 [Example 40]
EC90 [4]: 0.15 µM

Nc1nc(N[C@@H]2C[C@H](CO)[C@@H](O)[C@H]2O)c(-c2ccccn2)c(-c2ccccn2)n1 [Example 162]
EC90 [5]: > 5 µM

CCOCCNc1nc(C)c(-c2nc3cc(NC)ccc3s2)c(N[C@@H]2C[C@H](CO)[C@@H](O)[C@H]2O)n1 [Example 259]
EC90 [2]: < 0.5 µM

CCOc1nc(C)cc2cc(-c3c(C)nc(NCC4CC4)nc3N[C@@H]3C[C@H](CO)[C@@H](O)[C@H]3O)oc12 [Example 1238]
EC90 [1]: 0.5 to 5 µM

CO[C@@H]1[C@H](O)[C@@H](CO)C[C@H]1Nc1nc(N[C@H](C)c2ccc(C)cc2)nc(C)c1-c1nc2cnccc2s1 [Example 1350]
EC90 [3]: < 0.5 µM

Cc1nc(Nc2ccccc2OC(F)(F)F)nc(N[C@@H]2C[C@H](CO)[C@@H](O)[C@H]2O)c1-c1nc2ccccc2s1 [Example 1236]
EC90 [1]: > 5 µM

Cc1nc(NCc2ccccc2C(F)(F)F)nc(N[C@@H]2C[C@H](CO)[C@H]3OC(C)(C)O[C@H]32)c1-c1nc2ccccc2s1 [Example 236]
EC90 [2]: > 5 µM

Cc1nc(NCc2ccccc2)nc(N[C@@H]2C[C@H](CO)[C@@H](O)[C@H]2O)c1-c1nc2ccccc2s1 [Example 431]
EC90 [2]: < 0.5 µM

CCCCNc1nc(Cl)c(-c2nc3ccccc3s2)c(N[C@@H]2C[C@H](CO)[C@@H](O)[C@H]2O)n1 [Example 432]
EC90 [2]: < 0.5 µM

Cc1nc(NCC(F)(F)F)nc(N[C@@H]2C[C@H](CO)[C@@H](O)[C@H]2O)c1-c1nc2cnccc2o1 [Example 2001]
EC90 (replicon RNA level by real time PCR (Taqman), day 3, calculated EC90): 0.5 to 5 µM

Cc1nc(Nc2cccc(OCc3ccccc3)c2)nc(N[C@@H]2C[C@H](CO)[C@@H](O)[C@H]2O)c1-c1nc2ccccc2s1 [Example 1231]
EC90 [1]: 0.5 to 5 µM

Cc1ccc([C@@H](C)Nc2nc(C)c(-c3nc4ccccc4s3)c(N[C@@H]3C[C@H](CO)[C@@H](O)[C@H]3O)n2)cc1 [Example 1234]
EC90 [1]: > 5 µM

COc1cc2cc(-c3c(Cl)nc(NCC(F)(F)F)nc3N[C@@H]3C[C@H](CO)[C@@H](O)[C@H]3O)oc2cn1 [Example 22]
EC90 [5]: < 0.5 µM

Cc1nc(NC2CC2)nc(N[C@@H]2C[C@H](C(C)O)[C@@H](O)[C@H]2O)c1-c1nc2c(C)nccc2s1 (some centres unmarked) [Example 1398]
EC90 [3]: < 0.5 µM

Cc1nc(Nc2cccc(F)c2)nc(N[C@@H]2C[C@H](CO)[C@@H](O)[C@H]2O)c1-c1nc2ccccc2s1 [Example 1042]
EC90 [1]: > 5 µM

CCCCCNc1nc(Cl)c(-c2cc3cc(C)nc(C)c3o2)c(N[C@@H]2C[C@H](CO)[C@@H](O)[C@H]2O)n1 [Example 450]
EC90 [2]: < 0.5 µM

Nc1nc(Cl)c(-c2cccs2)c(N[C@@H]2C[C@H](CO)[C@@H](O)[C@H]2O)n1 [Example 153]
EC90 [5]: > 5 µM

CNc1nc(C)c(-c2nc3ccccc3s2)c(N[C@@H]2C[C@H](CO)[C@@H](O)[C@H]2O)n1 [Example 319]
EC90 [5]: < 0.5 µM
